Patent US10865376B2, “Method for detecting the presence or absence of biological particles” (bioMérieux, priority 2014, dated 2020)

Tests used:
Type in all cases: cell-based
[1] = tested on: Escherichia coli (ATCC 35218); assay: Detection of the inhibition zone around a support impregnated with antibiotic, by ombroscopy / micro-ombroscopy
Excerpt: (§1) In general terms, referring to FIG. 2, the method of detection 100 of the present invention comprises a first step 101 of seeding the culture medium 2 with an extract of biological particles 1. The extract of biological particles 1 is for example a raw sample of biological particles 1 taken from the patient directly. In this case the raw sample undergoes a preculture phase for isolating strains of biological particles 1 present, in the case of a sample comprising a diversity of biological particles 1, and increase of the biological particles 1 selected and isolated. […] The sample of biological particles 1 has a biomass of biological particles 1 that is sufficient to be analyzed validly, such as a standard at a concentration of 0.5 McFarland. The extract of biological particles 1 is for example from urine, blood, cerebrospinal fluid or a similar biological fluid.
(§2) The culture medium 2 is for example flooded with the extract of biological particles 1, or the culture medium 2 is seeded with biological particles 1 by swabbing, or the culture medium 2 receives the biological particles by spreading them using a rake. Then, the Petri dish 4 is agitated transversely to distribute the extract of biological particles 1 as uniformly as possible on the culture medium 2, and then any supernatant is removed from the Petri dish 4. The first step of seeding 101 may have features different from those described above without departing from the rules of the present invention.
The method of detection 100 then comprises a second step 102 of receiving at least one dose of the chemical agent 3 at the initial time point T0, for example starting from placement of at least one impregnated support 5 inoculated with the chemical agent 3 on a receiving zone R of the impregnated support 5 on the culture medium 2.
The impregnated support 5 is for example a disk impregnated with the chemical agent 3, the disk having the overall conformation of a thin slice of a cylinder. The disk comprises an amount of chemical agent 3 that is homogeneous overall in its volume. […]

[2] = tested on: Escherichia coli (ATCC 25922); assay: Detection of the inhibition zone around a support impregnated with antibiotic, by micro-ombroscopy; details: micro-ombroscopy (FIG. 10 device), detection time TX of two hours
Excerpt: as §1
as §2, with “The first step of seeding 101 may have features different from those described above without departing from the rules of the present invention.” left out

[3] = tested on: Escherichia coli (ATCC 25922); assay: Minimum inhibitory concentration calculated from the normed representation (ombroscopy image plus ruler); details: starting from six hours, FIGS. 26 and 27
Excerpt: (§3) The impregnated support 5 is for example also a slender strip, of overall rectangular conformation. The strip comprises for example a concentration of chemical agent 3 that follows an increasing concentration gradient from one short edge to an opposite short edge of the strip. In FIG. 19, the fifth processing step 105 comprises a second phase X2 of taking a control photograph 7' of a ruler 15 arranged on the culture medium 2 contained in the Petri dish 4, the second phase X2 also being carried out by the detecting device 12. Then the fifth processing step 105 comprises a third phase X3 of superimposing the image 7 and the control photograph 7' and more particularly of their respective receiving zone R to form a normed representation 7'' of the culture medium 2. In FIG. 20, the fifth processing step 105 comprises a fourth phase X4 of localization of a reference mark 16 of the ruler 15. In the example shown, the reference mark 16 is the indication “256” on the ruler 15, and the reference mark 16 may consist of some other and relatively any indication. The reference mark 16 comprises Cartesian coordinates […] and […]. In FIGS. 21 to 25, the fifth processing step 105 comprises a fifth phase X5 of processing the normed representation 7''. In FIG. 21, the fifth phase X5 comprises at least one smoothing operation for homogenizing the normed representation 7''. […]

[4] = tested on: Staphylococcus aureus (ATCC 25923); assay: as above; details: starting from six hours, FIG. 28
Excerpt: as §3

[5] = tested on: Escherichia coli (ATCC 35218); assay: Minimum inhibitory concentration / inhibition zone from the normed representation (ombroscopy image plus ruler)
Excerpt: as §3

- response characterized from the calculated minimum concentration MIC [3]: sensitive
- response characterized from the calculated minimum concentration MIC [4]: sensitive
Compound: CC1(C)S[C@@H]2[C@H](NC(=O)[C@H](N)c3ccccc3)C(=O)N2[C@H]1C(=O)O [ampicillin]
- response of the biological particles to the chemical agent (sensitivity / resistance) ([1]; micro-ombroscopy (FIG. 10 device), detection time TX of four hours): resistance
- response of the biological particles to the chemical agent (sensitivity / resistance) ([1]; ombroscopy (FIG. 9 device), identifiable starting from four hours, images up to twenty-four hours): resistance
- presence or absence of inhibition zone ([1]; ombroscopy (FIG. 9 device), starting from four hours): no inhibition zone is detected
- response of the biological particles to the chemical agent (sensitivity / resistance) [2]: sensitivity
- response from the normed representation ([5]; FIG. 29, based on absence of a first inhibition zone Z1): resistant
- response from the normed representations, according to EUCAST ([5]; FIG. 30): resistant
